Assay results published in patent US20240130988A1, “Use of stilbene compounds in the preparation of anti-tumor drugs” (Guangzhou AnHao Pharmaceutical Technology CO., LTD., priority 2022, published 2024).
Marks after values point to notes of the source that are not given here.

Assays:
[1] = tested on: LLC (mouse lung cancer cells); experiment: Enrichment of CD8+ cytotoxic T lymphocytes in tumor tissue, Lewis non-small cell lung cancer model of mice; format: in vivo; settings: 400 mg/kg ip once a day for 10 days; for The ratio of CD8^+ in total immune cells of tumor tissues (%): flow cytometry; for The ratio of distribution area in tumor tissues (%): CD8+ immunohistochemistry
Method: LLC (mouse lung cancer cells) were a mouse Lewis lung cancer cells.
The modeling method for LLC cell lung cancer in mice was as follows:
LLC cells were cultured in the general medium containing 10% fetal bovine serum and 100 μg/mL of double antibody (penicillin±streptomycin), and then cultivated in a 37° C., 5% CO2 cell incubator for routine incubation. LLC cells, that had grown to logarithmic phase, were digested with 0.25% trypsin (containing EDTA) to form a cell suspension, which was centrifuged at 1000 rpm/min for 3 min. The supernatant was discarded, and cell precipitates were collected, that were resuspended in culture medium without serum and double antibody. The cell suspension was further centrifuged to adjust the volume under the same conditions with the aid of cell counting, so as to prepare a cell suspension at a concentration of […] was injected into the right abdomen of each mouse, to complete the inoculation of tumor cells. The tumor was allowed to grew about 10 days, and the volume reached around 100 mm^3, before the mice were treated with test compounds.
Drug preparation: compounds 1-13 of the present invention were respective prepared into an injection with injection water.
Experimental methods: The model mice with LLC cell lung cancer were treated by intraperitoneal administration of 400 mg/kg injection containing the compound of the present invention. The model mice were divided into a negative control group (model mice only receiving equal volume of injection water by intraperitoneal administration) and treatment groups (model mice receiving the injection prepared with the compound of the present invention by intraperitoneal administration). The intraperitoneal injection regimen was carried out by injecting once a day at the pre-determined time. Before administration, the mice were weighed, and then treated with the injection at a dosage of 10 mL/kg, After successive administration for 10 days, that is, on the 10th day after receiving treatment, the mice were sacrificed, and the subcutaneous tumors were stripped to detect the ratio of cytotoxic T lymphocyte antigen CD8^+ in tumor tissues of the negative group and the treatment group by flow cytometry.
CD8^+ tumor-infiltrating lymphocytes in tumor tissues were detected by flow cytometry. The specific steps were as follows:
The mice were sacrificed, and then the abdominal epidermis of the mice was cut open using ophthalmic scissors, to fully expose the subcutaneous tumors. The subcutaneous tumor tissues on the right side of the mouse's abdomen were gradually peeled off with tweezers and ophthalmic scissors. After rinsing with PBS, the stripped tumor tissues were cut into about 1 mm using ophthalmic scissors, and then placed in 3 mL of PBS buffer containing 100 μg/mL of hyaluronidase. A centrifuge tube containing a dispersed liquid was placed in a water bath and kept at 37° C. for 20 min. A pipette was used to blow and shake the digestive tumor tissues every 5 minutes to fully digest. The dispersed liquid containing undigested tumor tissues was filtered through a 70 μm stainless steel cell screen, and the remaining undigested tumor tissues were ground using a push rod of 20 mL syringe on 70 μm cell screen and rinsed 5 times with 1 mL of PBS while grinding. The cell suspension passing the cell screen was transferred to a 15 mL centrifuge tube, and centrifuged at 4000 rpm for 3 min. Then, cell precipitates were collected, to which was added 2 mL of red cell lysis buffer, and rested for 10 min, followed by centrifuging at 4000 rpm for 3 min. After washing with PBS, the cells were resuspended by adding 2-3 mL of PBS.
An appropriate amount of cell suspension was used as the sample for flow cytometry, and after counting, the cell suspension was adjusted to have a concentration of 5×10^6/mL. 100 μL of cell suspension was added to a test tube with a pipettor. […]

[2] = tested on: nonfusion human umbilical vein endothelial cells (HUVEC); experiment: TMT quantitative proteomics on nonfusion HUVEC; format: cell-based; settings: 10 μM; for Differentially expressed proteins: more than 1.5 times or less than 0.67 times vs control; for Down-regulation / Up-regulation: number of proteins
Method: Nonfusion human umbilical vein endothelial cells (HUVEC) were used to simulate new tumor blood vessels, while confluent HUVECs were used to simulate normal blood vessels, to construct experimental models. Two different HUVECs were treated with the compound at the same dosage of 10 μM, to simulate the fusion cell state, and proteome samples were prepared. After preparation of peptide segments, the segments were labelled with TMT, and a quantitative proteomics analysis was carried out. The efficiency of TMT labeling was higher than 99.4%, and a total of 28372 peptide segments from 4934 proteins were characterized using a strict 1% FDR limit. Among them, 4909 quantifiable proteins were identified, indicating reliable quality. The nonfusion treatment groups and the fusion treatment groups were compared with their respective control groups, and the control group was used as a reference, with a significant difference of more than 1.5 times or less than 0.67 times as the protein score standard.
The total cell proteins of the samples in nonfusion cell groups and fusion cell groups were extracted separately, and 2 μg of protein samples were subjected to quality analysis, The quantitative proteomics experiments were carried out, and the protein concentration assay was performed by quantitative grayscale measurement.
Data analysis: The human protein database (Scientific name: Homo sapiens, 9606) was downloaded from UniProt, MaxQuant (v 1.5.5.1) search engine was used to search for the database. A total of 4934 proteins (4909 quantitative proteins) and 28372 peptide segments were identified by TMT quantitative proteomics experiments, with a labeling efficiency of more than 99%, and the complete digestion occupied 86.3%.

[3] = tested on: human ovarian cancer A2780; experiment: Human ovarian cancer A2780 transplanted tumor in nude mice; format: in vivo, BALB/C nude mice; settings: A2780, 200 mg/kg ip × 14
Method: A human ovarian cancer A2780 model transplanted into nude mice was used in the experiment to investigate the anti-tumor effect of test compounds.
Preparation: The compound was prepared as the injection at the desired concentration with sterile normal saline, prior to administration.
Animal strain: BALB/C nude mice (SPF grade), weight: 19-21 g, gender: male.
Number of animals in each treatment group: 8; number of animals in the control group: >12.
The tumor blocks of human ovarian cancer A2780 growing well were cut into uniform small pieces of 3 mm under sterile conditions, and then subcutaneously inoculated into the right armpit of each mouse with a cannula. The mice were divided into 9 groups, 8 mice for each treatment group, while >12 mice were included in the control group.
14 days after inoculation, the average volume of the tumor block was about 100 mm^3. The animals were regrouped based on the size of the tumor, and the animals with tumors that were too large and too small were sifted out. For each group, the average volume of tumors was basically the same, and then the mice were initially treated with test compounds. The mice were intraperitoneally injected once a day for 14 days, at a dosage of 0.2 mL/20 g body weight; the mice in the control group were given the same volume of sterile normal saline. From the 14th day of inoculation, the long diameter a (mm) of the tumor, together with the perpendicular short diameter b (mm), was measured using a digital electronic caliper, twice a week. The calculation formula of tumor volume is: TV=ab^2/2, and the formula for calculating the relative tumor volume is RTV=Vt/Vo, wherein Vo denotes the tumor volume measured when the mice were divided into groups (i.e. d1), and Vt is the tumor volume from each measurement.
The result determination is based on the following formula: […]

SMILES | The ratio of CD8^+ in total immune cells of tumor tissues (%) ([1]; 400 mg/kg) | Differentially expressed proteins [2] | Down-regulation [2] | Up-regulation [2] | RTV (d 18) [3] | Tumor inhibitory rate % [3] | The ratio of distribution area in tumor tissues (%) [1] [%] | The ratio of CD8^+ in total immune cells of tumor tissues (%) [1] [%] | Tumor inhibitory rate % ([3]; listed as compound 6)
COc1ccc(/C=C(/C(=O)O)c2cc(OC)c(OC)c(OC)c2)c(O)c1O [Compound 1, (E)-3-(2,3-dihydroxy-4-methoxyphenyl)-2-(3,4,5-trimethoxylphenyl)acrylic acid] | 0.0605 ± 0.0124 | 323 | 296 | 7 | 5.63 ± 0.72 | 45.39^## % | – | – | –
COc1cc(/C=C(/C(=O)O)c2cc(OC)c(OC)c(OC)c2)cc(OC)c1 [Compound 3, (E)-3-(3,5-dimethoxyphenyl)-2-(3,4,5-trimethoxyphenyl)acrylic acid] | – | 318 | 312 | 6 | – | – | 6.731 ± 0.5692 | 0.0762 ± 0.0103 | –
COc1ccc(/C=C(/C(=O)O)c2cc(OC)c(OC)c(OC)c2)cc1F [Compound 4, (E)-3-(3-fluoro-4-methoxyphenyl)-2-(3,4,5-trimethoxyphenyl)acrylic acid] | – | 307 | 302 | 5 | 4.51 ± 0.67 | 56.26^## % | 6.872 ± 0.7633 | 0.0787 ± 0.0122 | –
COc1ccc(/C=C(/C(=O)O)c2cc(OC)c(OC)c(OC)c2)cc1O [Compound 6, (E)-3-(3-hydroxy-4-methoxyphenyl)-2-(3,4,5-trimethoxyphenyl)acrylic acid] | – | 312 | 307 | 5 | 3.58 ± 0.49 | 65.28% | – | 0.0814 ± 0.0118 | best inhibitory effect on ovarian cancer
COc1cc(/C(=C\c2cc(O)c(OC)c(F)c2)C(=O)O)cc(OC)c1OC [Compound 8, (E)-3-(5-fluoro-3-hydroxy-4-methoxyphenyl)-2-(3,4,5-trimethoxyphenyl)acrylic acid] | – | 317 | 311 | 6 | 5.21 ± 0.47 | 49.47^## % | – | 0.0735 ± 0.0127 | –
COc1ccc(/C=C(/C(=O)O)c2cc(OC)c(OC)c(OC)c2)c(F)c1O [Compound 9, (E)-3-(2-fluoro-3-hydroxy-4-methoxyphenyl)-2-(3,4,5-trimethoxyphenyl)acrylic acid] | – | 296 | 291 | 5 | 4.37 ± 0.62 | 57.61^# % | – | 0.0753 ± 0.0123 | –
COc1cc(/C=C(/C(=O)[O-])c2cc(OC)c(OC)c(OC)c2)cc(OC)c1F.[K+] [Compound 10] | – | 315 | 309 | 6 | 4.26 ± 0.73 | 58.68^# % | 5.847 ± 0.6349 | 0.0623 ± 0.0114 | –
COc1cc(/C(=C\c2cc(O)c(OC)c(O)c2)C(=O)O)cc(OC)c1OC [Compound 11, (E)-3-(3,5-dihydroxy-4-methoxyphenyl)-2-(3,4,5-trimethoxyphenyl)acrylic acid] | – | 317 | 306 | 11 | – | – | – | 0.0653 ± 0.0122 | –
